O=C1O[B-]2(OC1=O)OC(=O)C(=O)O2.[Li+]
solubility (mole fraction) (in DMF, 293.15 K): 0.114
solubility (mole fraction) (in DMF, 303.15 K): 0.0838
solubility (mole fraction) (in DMF, 313.15 K): 0.0658
solubility (mole fraction) (in DMF, 323.15 K): 0.0542
solubility (mole fraction) (in DMF, 333.15 K): 0.0404
solubility (mole fraction) (in DMF, 343.15 K): 0.0352
solubility (mole fraction) (in DMF, 353.15 K): 0.0323
solubility (mole fraction) (in DMF, 363.15 K): 0.023
solubility (mole fraction) (in DMSO, 293.15 K): 0.148
solubility (mole fraction) (in DMSO, 303.15 K): 0.139
solubility (mole fraction) (in DMSO, 313.15 K): 0.127
solubility (mole fraction) (in DMSO, 323.15 K): 0.113
solubility (mole fraction) (in DMSO, 333.15 K): 0.0989
solubility (mole fraction) (in DMSO, 343.15 K): 0.0869
solubility (mole fraction) (in DMSO, 353.15 K): 0.0774
solubility (mole fraction) (in DMSO, 363.15 K): 0.0666
solubility (mole fraction) (in THF, 293.15 K): 0.0479
solubility (mole fraction) (in THF, 303.15 K): 0.0336
solubility (mole fraction) (in THF, 313.15 K): 0.0269
solubility (mole fraction) (in THF, 323.15 K): 0.0217
solubility (mole fraction) (in THF, 333.15 K): 0.0172
solubility (mole fraction) (in acetonitrile, 293.15 K): 0.00893
solubility (mole fraction) (in acetonitrile, 303.15 K): 0.00869
solubility (mole fraction) (in acetonitrile, 313.15 K): 0.00803
solubility (mole fraction) (in acetonitrile, 323.15 K): 0.00653
solubility (mole fraction) (in acetonitrile, 333.15 K): 0.00566
solubility (mole fraction) (in acetonitrile, 343.15 K): 0.00297
solubility (mole fraction) (in gamma-butyrolactone, 293.15 K): 0.1
solubility (mole fraction) (in gamma-butyrolactone, 303.15 K): 0.0796
solubility (mole fraction) (in gamma-butyrolactone, 313.15 K): 0.0544
solubility (mole fraction) (in gamma-butyrolactone, 323.15 K): 0.0372
solubility (mole fraction) (in gamma-butyrolactone, 333.15 K): 0.0248
solubility (mole fraction) (in gamma-butyrolactone, 343.15 K): 0.0163
solubility (mole fraction) (in gamma-butyrolactone, 353.15 K): 0.00786
solubility (mole fraction) (in gamma-butyrolactone, 363.15 K): 0.00503
solubility (mole fraction) (in propylene carbonate, 293.15 K): 0.0393
solubility (mole fraction) (in propylene carbonate, 313.15 K): 0.0312
solubility (mole fraction) (in propylene carbonate, 323.15 K): 0.0214
solubility (mole fraction) (in propylene carbonate, 333.15 K): 0.0106
solubility (mole fraction) (in propylene carbonate, 343.15 K): 0.00574
solubility (mole fraction) (in propylene carbonate, 353.15 K): 0.00218
solubility (mole fraction) (in propylene carbonate, 363.15 K): 0.00132

Source: BigSolDB 2.1
